Experimental data: ChEMBL document CHEMBL3045802, “Synthesis and in vitro antitumor activity of new quinoline, pyrimido[4,5-b]quinoline, [1,2,3]triazino[4,5-b]quinoline, and [1,2,4]triazolo[2,3:3,4]pyrimido[6,5-b]quinoline analogs” (2013)

How the values were obtained:
Assay type in all cases: functional
SK-MEL-28 = test: Cytotoxicity against Homo sapiens (human) SK-MEL-28 cells assessed as growth inhibition at 10 uM after 48 hr by coulter counter analysis; conditions: SK-MEL-28, 48 h, read-out: GI
MDA-MB-435 = test: Cytotoxicity against Homo sapiens (human) MDA-MB-435 cells assessed as growth inhibition at 10 uM after 48 hr by coulter counter analysis; conditions: MDA-MB-435, 48 h, read-out: GI
M14 = test: Cytotoxicity against Homo sapiens (human) M14 cells assessed as growth inhibition at 10 uM after 48 hr by coulter counter analysis; conditions: M14, 48 h, read-out: GI
LOX IMVI = test: Cytotoxicity against Homo sapiens (human) LOXIMVI cells assessed as growth inhibition at 10 uM after 48 hr by coulter counter analysis; conditions: read-out: GI
SNB-19 = test: Cytotoxicity against Homo sapiens (human) SNB19 cells assessed as growth inhibition at 10 uM after 48 hr by coulter counter analysis; conditions: SNB-19, 48 h, read-out: GI
SF-539 = test: Cytotoxicity against Homo sapiens (human) SF539 cells assessed as growth inhibition at 10 uM after 48 hr by coulter counter analysis; conditions: SF-539, 48 h, read-out: GI
SF-295 = test: Cytotoxicity against Homo sapiens (human) SF295 cells assessed as growth inhibition at 10 uM after 48 hr by coulter counter analysis; conditions: SF-295, 48 h, read-out: GI
OVCAR-4 = test: Cytotoxicity against Homo sapiens (human) OVCAR4 cells assessed as growth inhibition at 10 uM after 48 hr by coulter counter analysis; conditions: OVCAR-4, 48 h, read-out: GI
OVCAR-3 = test: Cytotoxicity against Homo sapiens (human) OVCAR3 cells assessed as growth inhibition at 10 uM after 48 hr by coulter counter analysis; conditions: OVCAR-3, 48 h, read-out: GI
IGROV-1 = test: Cytotoxicity against Homo sapiens (human) IGROV1 cells assessed as growth inhibition at 10 uM after 48 hr by coulter counter analysis; conditions: IGROV-1, 48 h, read-out: GI
UACC-257 = test: Cytotoxicity against Homo sapiens (human) UACC257 cells assessed as growth inhibition at 10 uM after 48 hr by coulter counter analysis; conditions: UACC-257, 48 h, read-out: GI
MDA-MB-468 = test: Cytotoxicity against Homo sapiens (human) MDA-MB-468 cells assessed as growth inhibition at 10 uM after 48 hr by coulter counter analysis; conditions: MDA-MB-468, 48 h, read-out: GI
T47D = test: Cytotoxicity against Homo sapiens (human) T47D cells assessed as growth inhibition at 10 uM after 48 hr by coulter counter analysis; conditions: read-out: GI
BT-549 = test: Cytotoxicity against Homo sapiens (human) BT549 cells assessed as growth inhibition at 10 uM after 48 hr by coulter counter analysis; conditions: BT-549, 48 h, read-out: GI
Hs-578T = test: Cytotoxicity against Homo sapiens (human) Hs578T cells assessed as growth inhibition at 10 uM after 48 hr by coulter counter analysis; conditions: read-out: GI
MDA-MB-231 = test: Cytotoxicity against Homo sapiens (human) MDA-MB-231 cells assessed as growth inhibition at 10 uM after 48 hr by coulter counter analysis; conditions: MDA-MB-231, 48 h, read-out: GI
MCF7 = test: Cytotoxicity against Homo sapiens (human) MCF7 cells assessed as growth inhibition at 10 uM after 48 hr by coulter counter analysis; conditions: MCF7, 48 h, read-out: GI
DU-145 = test: Cytotoxicity against Homo sapiens (human) DU145 cells assessed as growth inhibition at 10 uM after 48 hr by coulter counter analysis; conditions: DU-145, 48 h, read-out: GI
TK-10 = test: Cytotoxicity against Homo sapiens (human) TK10 cells assessed as growth inhibition at 10 uM after 48 hr by coulter counter analysis; conditions: TK-10, 48 h, read-out: GI
SN12C = test: Cytotoxicity against Homo sapiens (human) SN12C cells assessed as growth inhibition at 10 uM after 48 hr by coulter counter analysis; conditions: read-out: GI
RXF 393 = test: Cytotoxicity against Homo sapiens (human) RXF393 cells assessed as growth inhibition at 10 uM after 48 hr by coulter counter analysis; conditions: RXF 393, 48 h, read-out: GI
OVCAR-8 = test: Cytotoxicity against Homo sapiens (human) OVCAR8 cells assessed as growth inhibition at 10 uM after 48 hr by coulter counter analysis; conditions: OVCAR-8, 48 h, read-out: GI
OVCAR-5 = test: Cytotoxicity against Homo sapiens (human) OVCAR5 cells assessed as growth inhibition at 10 uM after 48 hr by coulter counter analysis; conditions: OVCAR-5, 48 h, read-out: GI
HCT-116 = test: Cytotoxicity against Homo sapiens (human) HCT116 cells assessed as growth inhibition at 10 uM after 48 hr by coulter counter analysis; conditions: HCT-116, 48 h, read-out: GI
HCC 2998 = test: Cytotoxicity against Homo sapiens (human) HCC2998 cells assessed as growth inhibition at 10 uM after 48 hr by coulter counter analysis; conditions: HCC 2998, 48 h, read-out: GI
COLO 205 = test: Cytotoxicity against Homo sapiens (human) COLO205 cells assessed as growth inhibition at 10 uM after 48 hr by coulter counter analysis; conditions: COLO 205, 48 h, read-out: GI
NCI-H460 = test: Cytotoxicity against Homo sapiens (human) NCI-H460 cells assessed as growth inhibition at 10 uM after 48 hr by coulter counter analysis; conditions: NCI-H460, 48 h, read-out: GI
NCI-H23 = test: Cytotoxicity against Homo sapiens (human) NCI-H23 cells assessed as growth inhibition at 10 uM after 48 hr by coulter counter analysis; conditions: NCI-H23, 48 h, read-out: GI
HOP-92 = test: Cytotoxicity against Homo sapiens (human) HOP92 cells assessed as growth inhibition at 10 uM after 48 hr by coulter counter analysis; conditions: HOP-92, 48 h, read-out: GI
A549 = test: Cytotoxicity against Homo sapiens (human) A549 cells assessed as growth inhibition at 10 uM after 48 hr by coulter counter analysis; conditions: A549, 48 h, read-out: GI
SR = test: Cytotoxicity against Homo sapiens (human) SR cells assessed as growth inhibition at 10 uM after 48 hr by coulter counter analysis; conditions: read-out: GI
RPMI-8226 = test: Cytotoxicity against Homo sapiens (human) RPMI8226 cells assessed as growth inhibition at 10 uM after 48 hr by coulter counter analysis; conditions: RPMI-8226, 48 h, read-out: GI
MOLT-4 = test: Cytotoxicity against Homo sapiens (human) MOLT4 cells assessed as growth inhibition at 10 uM after 48 hr by coulter counter analysis; conditions: MOLT-4, 48 h, read-out: GI
K562 = test: Cytotoxicity against Homo sapiens (human) K562 cells assessed as growth inhibition at 10 uM after 48 hr by coulter counter analysis; conditions: K562, 48 h, read-out: GI

Compound: COc1ccc(C2C3=C(CCCC3)Nc3nc(-c4ccccc4)[nH]c(=O)c32)cc1OC (configuration not stated)
- inhibition of growth at 10 µM (SK-MEL-28): < 10%
- inhibition of growth at 10 µM (MDA-MB-435): < 10%
- inhibition of growth at 10 µM (M14): < 10%
- inhibition of growth at 10 µM (LOX IMVI): < 10%
- inhibition of growth at 10 µM (SNB-19): 10.7%
- inhibition of growth at 10 µM (SF-539): < 10%
- inhibition of growth at 10 µM (SF-295): < 10%
- inhibition of growth at 10 µM (OVCAR-4): < 10%
- inhibition of growth at 10 µM (OVCAR-3): < 10%
- inhibition of growth at 10 µM (IGROV-1): < 10%
- inhibition of growth at 10 µM (UACC-257): < 10%
- inhibition of growth at 10 µM (MDA-MB-468): 21.2%
- inhibition of growth at 10 µM (T47D): 21.1%
- inhibition of growth at 10 µM (BT-549): < 10%
- inhibition of growth at 10 µM (Hs-578T): < 10%
- inhibition of growth at 10 µM (MDA-MB-231): < 10%
- inhibition of growth at 10 µM (MCF7): < 10%
- inhibition of growth at 10 µM (DU-145): < 10%
- inhibition of growth at 10 µM (TK-10): < 10%
- inhibition of growth at 10 µM (SN12C): 10.8%
- inhibition of growth at 10 µM (RXF 393): 14.4%
- inhibition of growth at 10 µM (OVCAR-8): < 10%
- inhibition of growth at 10 µM (OVCAR-5): 12.6%
- inhibition of growth at 10 µM (HCT-116): < 10%
- inhibition of growth at 10 µM (HCC 2998): < 10%
- inhibition of growth at 10 µM (COLO 205): 15.9%
- inhibition of growth at 10 µM (NCI-H460): < 10%
- inhibition of growth at 10 µM (NCI-H23): < 10%
- inhibition of growth at 10 µM (HOP-92): 13.3%
- inhibition of growth at 10 µM (A549): < 10%
- inhibition of growth at 10 µM (SR): < 10%
- inhibition of growth at 10 µM (RPMI-8226): < 10%
- inhibition of growth at 10 µM (MOLT-4): < 10%
- inhibition of growth at 10 µM (K562): < 10%

Compound: COc1ccc(C2C3=C(CCCC3)Nc3nc(-c4ccc(N(C)C)cc4)[nH]c(=O)c32)cc1OC (configuration not stated)
- inhibition of growth at 10 µM (SK-MEL-28): < 10%
- inhibition of growth at 10 µM (MDA-MB-435): < 10%
- inhibition of growth at 10 µM (M14): < 10%
- inhibition of growth at 10 µM (LOX IMVI): < 10%
- inhibition of growth at 10 µM (SNB-19): < 10%
- inhibition of growth at 10 µM (SF-539): < 10%
- inhibition of growth at 10 µM (SF-295): < 10%
- inhibition of growth at 10 µM (OVCAR-4): < 10%
- inhibition of growth at 10 µM (OVCAR-3): < 10%
- inhibition of growth at 10 µM (IGROV-1): < 10%
- inhibition of growth at 10 µM (UACC-257): < 10%
- inhibition of growth at 10 µM (MDA-MB-468): 10.8%
- inhibition of growth at 10 µM (T47D): 14.9%
- inhibition of growth at 10 µM (BT-549): < 10%
- inhibition of growth at 10 µM (Hs-578T): < 10%
- inhibition of growth at 10 µM (MDA-MB-231): < 10%
- inhibition of growth at 10 µM (MCF7): < 10%
- inhibition of growth at 10 µM (DU-145): < 10%
- inhibition of growth at 10 µM (TK-10): < 10%
- inhibition of growth at 10 µM (SN12C): 12.9%
- inhibition of growth at 10 µM (RXF 393): < 10%
- inhibition of growth at 10 µM (OVCAR-8): < 10%
- inhibition of growth at 10 µM (OVCAR-5): < 10%
- inhibition of growth at 10 µM (HCT-116): < 10%
- inhibition of growth at 10 µM (HCC 2998): < 10%
- inhibition of growth at 10 µM (COLO 205): < 10%
- inhibition of growth at 10 µM (NCI-H460): < 10%
- inhibition of growth at 10 µM (NCI-H23): < 10%
- inhibition of growth at 10 µM (HOP-92): < 10%
- inhibition of growth at 10 µM (A549): < 10%
- inhibition of growth at 10 µM (SR): < 10%
- inhibition of growth at 10 µM (RPMI-8226): < 10%
- inhibition of growth at 10 µM (MOLT-4): < 10%
- inhibition of growth at 10 µM (K562): < 10%

Compound: Clc1ccc(C2C3=C(CCCC3)Nc3ncn4nc(-c5ccccc5)nc4c32)cc1 (configuration not stated)
- inhibition of growth at 10 µM (SK-MEL-28): < 10%
- inhibition of growth at 10 µM (MDA-MB-435): < 10%
- inhibition of growth at 10 µM (M14): < 10%
- inhibition of growth at 10 µM (LOX IMVI): 15.1%
- inhibition of growth at 10 µM (SNB-19): < 10%
- inhibition of growth at 10 µM (SF-539): < 10%
- inhibition of growth at 10 µM (SF-295): < 10%
- inhibition of growth at 10 µM (OVCAR-4): < 10%
- inhibition of growth at 10 µM (OVCAR-3): < 10%
- inhibition of growth at 10 µM (IGROV-1): < 10%
- inhibition of growth at 10 µM (UACC-257): < 10%
- inhibition of growth at 10 µM (MDA-MB-468): 23.1%
- inhibition of growth at 10 µM (T47D): 14.7%
- inhibition of growth at 10 µM (BT-549): < 10%
- inhibition of growth at 10 µM (Hs-578T): < 10%
- inhibition of growth at 10 µM (MDA-MB-231): 11.1%
- inhibition of growth at 10 µM (MCF7): < 10%
- inhibition of growth at 10 µM (DU-145): < 10%
- inhibition of growth at 10 µM (TK-10): < 10%
- inhibition of growth at 10 µM (SN12C): < 10%
- inhibition of growth at 10 µM (RXF 393): < 10%
- inhibition of growth at 10 µM (OVCAR-8): < 10%
- inhibition of growth at 10 µM (OVCAR-5): < 10%
- inhibition of growth at 10 µM (HCT-116): < 10%
- inhibition of growth at 10 µM (HCC 2998): < 10%
- inhibition of growth at 10 µM (COLO 205): 11.5%
- inhibition of growth at 10 µM (NCI-H460): < 10%
- inhibition of growth at 10 µM (NCI-H23): 11.7%
- inhibition of growth at 10 µM (HOP-92): 14%
- inhibition of growth at 10 µM (A549): < 10%
- inhibition of growth at 10 µM (SR): < 10%
- inhibition of growth at 10 µM (RPMI-8226): 12.3%
- inhibition of growth at 10 µM (MOLT-4): 11%
- inhibition of growth at 10 µM (K562): < 10%
